Results taken from patent US9597407B2, “Targeted antimicrobial moieties” (C3 Jian, Inc., priority 2009, dated 2017).
“Also recorded” adds a separate entry of the source.

Assays:
microorganisms = assay: Morphology, biofilm and growth disruption by peptides (Table 5); type: cell-based; design: key: A: Peptide aggregates; B: Less hyphal formation; Clumps; Diffuse clumps and small polyps; F: Diffuse growth; H: Thin; I: Growth inhibition; Microcolony formation; Rippled; Small polyps; Thick; W: Halo formation on top, microlonies on bottom
Description: In certain embodiments peptides that induce alterations in phenotype or other biological activities can also be used as antimicrobial effector moieties.

bacteria = assay: Binding of targeting peptides to microorganisms (Table 3); details: preferably 1x PBS; for Target(s) (microorganisms bound by the targeting peptide) / Target(s) (microorganism bound by the targeting peptide): peptide binding in aqueous buffers that varied depending on peptide solubility
[1] = microorganism bound by the targeting peptide, binding in aqueous buffers chosen by peptide solubility

## PF-427 (YVLEYHGLRATQDVDAFMAL; Peptide with targeting and/or antimicrobial activity)
microorganisms; E. coli
  Organism, effect (morphology, biofilm and growth disruption): E. coli (C)
microorganisms; E. faecalis
  Organism, effect (morphology, biofilm and growth disruption): E. faecalis (C)
microorganisms; MRSA
  Organism, effect (morphology, biofilm and growth disruption): MRSA (C)
microorganisms; S. pneumoniae
  Organism, effect (morphology, biofilm and growth disruption): S. pneumoniae (R)
bacteria
  Target(s) (microorganisms bound by the targeting peptide): M. luteus; also recorded: P. aeruginosa; also recorded: C. albicans; also recorded: C. jejuni

## PF-654 (chain 1 LSGRLAGRR; chain 2 LSGRLAGRR; Peptide with targeting and/or antimicrobial activity)
microorganisms; C. albicans
  Organism, effect (morphology, biofilm and growth disruption): C. albicans (B)
microorganisms; MRSA
  Organism, effect (morphology, biofilm and growth disruption): MRSA (R)
microorganisms; S. pneumoniae
  Organism, effect (morphology, biofilm and growth disruption): S. pneumoniae (A)
bacteria
  Target(s) (microorganism bound by the targeting peptide): Mycobacteria spp

## PF-273 (LVGALLIFVALIYMVLKGNADKN; Peptide with targeting and/or antimicrobial activity)
microorganisms; S. epidermidis
  Organism, effect: S. epidermidis (C)
bacteria; [1]
  Target(s): S. epidermidis; also recorded: M. luteus; also recorded: P. aeruginosa; also recorded: A. baumannii

## PF-643 (chain 1 VRCRL; chain 2 VRCRL; Peptide with targeting and/or antimicrobial activity)
microorganisms; E. faecalis
  Organism, effect (morphology, biofilm and growth disruption): E. faecalis (R)
microorganisms; MRSA
  Organism, effect (morphology, biofilm and growth disruption): MRSA (C)
microorganisms; S. pneumoniae
  Organism, effect (morphology, biofilm and growth disruption): S. pneumoniae (R)
bacteria
  Target(s) (microorganism bound by the targeting peptide): Mycobacteria spp

## PF-425 (MMELVLKTIIGPIVVGVVLRIVDKWLNKDK; Peptide with targeting and/or antimicrobial activity)
microorganisms; C. albicans
  Organism, effect (morphology, biofilm and growth disruption): C. albicans (A)
microorganisms; C. jejuni
  Organism, effect (morphology, biofilm and growth disruption): C. jejuni (D)
microorganisms; E. coli
  Organism, effect (morphology, biofilm and growth disruption): E. coli (C)
microorganisms; E. faecalis
  Organism, effect (morphology, biofilm and growth disruption): E. faecalis (D)
microorganisms; MRSA
  Organism, effect (morphology, biofilm and growth disruption): MRSA (D)
microorganisms; P. aeruginosa
  Organism, effect (morphology, biofilm and growth disruption): P. aeruginosa (A)
microorganisms; S. epidermidis
  Organism, effect (morphology, biofilm and growth disruption): S. epidermidis (D)
microorganisms; S. pneumoniae
  Organism, effect (morphology, biofilm and growth disruption): S. pneumoniae (D)
bacteria
  Target(s) (microorganisms bound by the targeting peptide): S. epidermidis and M. luteus and E. coli and P. aeruginosa and C. albicans and MRSA and S. pneumoniae and C. jeikeium

## LSPRPIIVSRRSRADNNNDWSR [PF-143]
microorganisms; P. aeruginosa
  Organism, effect: P. aeruginosa (C)
bacteria; [1]
  Target(s): S. epidermidis and MRSA and C. jeikeium

## PF-658 (chain 1 PTTPPPTTPPEIPTGGTVIST; chain 2 PTTPPPTTPPEIPTGGTVIST; Peptide with targeting and/or antimicrobial activity)
microorganisms; MRSA
  Organism, effect (morphology, biofilm and growth disruption): MRSA (R)
microorganisms; S. pneumoniae
  Organism, effect (morphology, biofilm and growth disruption): S. pneumoniae (H)
bacteria
  Target(s) (microorganism bound by the targeting peptide): Mycobacteria spp

## PF-428 (ENEESIF; Peptide with targeting and/or antimicrobial activity)
microorganisms; S. pneumoniae
  Organism, effect (morphology, biofilm and growth disruption): S. pneumoniae (H)
bacteria
  Target(s) (microorganisms bound by the targeting peptide): S. epidermidis; also recorded: C. albicans; also recorded: E. faecalis; also recorded: C. jeikeium

## PF-396 (LIYTILASLGVLTVLQAILGREPKAVKA; Peptide with targeting and/or antimicrobial activity)
microorganisms; E. coli
  Organism, effect: E. coli (C)
microorganisms; E. faecalis
  Organism, effect: E. faecalis (C)
microorganisms; MRSA
  Organism, effect: MRSA (C)
microorganisms; S. epidermidis
  Organism, effect: S. epidermidis (S)
bacteria
  Target(s) (microorganisms bound by the targeting peptide): S. epidermidis; also recorded: E. coli; also recorded: P. aeruginosa; also recorded: C. albicans; also recorded: E. faecalis; also recorded: C. jeikeium

## PF-173 (AGRTAIVQGGG; Peptide with targeting and/or antimicrobial activity)
microorganisms; C. jeikeium
  Organism, effect: C. jeikeium (D)
microorganisms; S. epidermidis
  Organism, effect: S. epidermidis (A)
bacteria; [1]
  Target(s): S. epidermidis; also recorded: M. luteus; also recorded: P. mirabilis; also recorded: E. coli; also recorded: P. aeruginosa; also recorded: C. albicans; also recorded: C. jeikeium; also recorded: C. jejuni

## PF-660 (chain 1 TDPQATAAPRRRTSPR; chain 2 TDPQATAAPRRRTSPR; Peptide with targeting and/or antimicrobial activity)
microorganisms; S. pneumoniae
  Organism, effect (morphology, biofilm and growth disruption): S. pneumoniae (H)
bacteria
  Target(s) (microorganism bound by the targeting peptide): Mycobacteria spp

## PF-344 (DERLPEAKAIRNFNGSVMVLGR; Peptide with targeting and/or antimicrobial activity)
microorganisms; E. coli
  Organism, effect: E. coli (A)
bacteria; [1]
  Target(s): B. subtilis; also recorded: C. jejuni

## PF-585 (DYNHLLNVVQDWVNTN; Peptide with targeting and/or antimicrobial activity)
microorganisms; C. jejuni
  Organism, effect (morphology, biofilm and growth disruption): C. jejuni (R)
microorganisms; E. faecalis
  Organism, effect (morphology, biofilm and growth disruption): E. faecalis (A)
microorganisms; MRSA
  Organism, effect (morphology, biofilm and growth disruption): MRSA (S)
microorganisms; S. epidermidis
  Organism, effect (morphology, biofilm and growth disruption): S. epidermidis (S)
microorganisms; S. pneumoniae
  Organism, effect (morphology, biofilm and growth disruption): S. pneumoniae (R)
bacteria
  Target(s) (microorganisms bound by the targeting peptide): S. epidermidis and E. coli and C. albicans and MRSA and S. pneumoniae and C. jeikeium

## PF-636 (chain 1 LVRLA; chain 2 LVRLA; Peptide with targeting and/or antimicrobial activity)
microorganisms; B. subtilis
  Organism, effect (morphology, biofilm and growth disruption): B. subtilis (H)
microorganisms; C. albicans
  Organism, effect (morphology, biofilm and growth disruption): C. albicans (B)
microorganisms; E. faecalis
  Organism, effect (morphology, biofilm and growth disruption): E. faecalis (H)
microorganisms; S. pneumoniae
  Organism, effect (morphology, biofilm and growth disruption): S. pneumoniae (H)
bacteria
  Target(s) (microorganism bound by the targeting peptide): S. epidermidis and C. albicans and MRSA and S. pneumoniae and E. faecalis

## PF-C137 (QRMYWFKRGFETGDFSAGDTFAELK; Peptide with targeting and/or antimicrobial activity)
microorganisms; F. nucleatum
  Organism, effect (morphology, biofilm and growth disruption): F. nucleatum (T)
bacteria
  Target(s) (microorganism bound by the targeting peptide): A. naeslundii; also recorded: F. nucleatum; also recorded: P. gingivalis; also recorded: S. mutans

## PF-065 (LEKNTRDNYFIHAIDRIYINTSKGLFPESELVAWG; Peptide with targeting and/or antimicrobial activity)
microorganisms; C. jeikeium
  Organism, effect: C. jeikeium (A)
microorganisms; MRSA
  Organism, effect: MRSA (R)
microorganisms; S. epidermidis
  Organism, effect: S. epidermidis (D)
bacteria; microorganism the targeting peptide binds, binding in aqueous buffers that varied with peptide solubility
  Target(s): M. luteus and E. coli and P. aeruginosa and C. albicans and MRSA and S. pneumoniae and C. jeikeium and C. jejuni

## PF-C181 (KMRAGQVVFIYKLILVLLFYVLQKLFDLKKGCF; Peptide with targeting and/or antimicrobial activity)
microorganisms; F. nucleatum
  Organism, effect (morphology, biofilm and growth disruption): F. nucleatum (T)
bacteria
  Target(s) (microorganism bound by the targeting peptide): P. gingivalis

## PF-599 (LFEIFKPKH; Peptide with targeting and/or antimicrobial activity)
microorganisms; C. jejuni
  Organism, effect (morphology, biofilm and growth disruption): C. jejuni (R)
microorganisms; E. faecalis
  Organism, effect (morphology, biofilm and growth disruption): E. faecalis (A)
microorganisms; MRSA
  Organism, effect (morphology, biofilm and growth disruption): MRSA (C)
microorganisms; S. epidermidis
  Organism, effect (morphology, biofilm and growth disruption): S. epidermidis (M)
microorganisms; S. pneumoniae
  Organism, effect (morphology, biofilm and growth disruption): S. pneumoniae (R)
bacteria
  Target(s) (microorganism bound by the targeting peptide): S. epidermidis and P. mirabilis and E. coli and C. albicans and MRSA and S. pneumoniae and C. jeikeium

## PF-C180 (TVEELDKAFTWGAAAALAIGVIAINVGLAAGYCYNNNDVF; Peptide with targeting and/or antimicrobial activity)
microorganisms; P. gingivalis
  Organism, effect (morphology, biofilm and growth disruption): P. gingivalis (R)
microorganisms; S. mutans
  Organism, effect (morphology, biofilm and growth disruption): S. mutans (S)
bacteria
  Target(s) (microorganism bound by the targeting peptide): F. nucleatum; also recorded: P. gingivalis; also recorded: S. mutans; also recorded: T. denticola

## PF-604 (LMEQVEV; Peptide with targeting and/or antimicrobial activity)
microorganisms; E. faecalis
  Organism, effect (morphology, biofilm and growth disruption): E. faecalis (A)
bacteria
  Target(s) (microorganism bound by the targeting peptide): S. epidermidis; also recorded: C. albicans; also recorded: C. jeikeium

## PF-235 (GIPFSKPHKRQVNYMKSDVLAYIEQNKMAHTA; Peptide with targeting and/or antimicrobial activity)
microorganisms; M. luteus
  Organism, effect: M. luteus (T)
bacteria; [1]
  Target(s): S. epidermidis; also recorded: M. luteus

## PF-685 (chain 1 PTLWLACL; chain 2 PTLWLACL; Peptide with targeting and/or antimicrobial activity)
microorganisms; C. jeikeium
  Organism, effect (morphology, biofilm and growth disruption): C. jeikeium (R)
microorganisms; E. faecalis
  Organism, effect (morphology, biofilm and growth disruption): E. faecalis (R)
microorganisms; MRSA
  Organism, effect (morphology, biofilm and growth disruption): MRSA (M)
microorganisms; S. epidermidis
  Organism, effect (morphology, biofilm and growth disruption): S. epidermidis (M)
microorganisms; S. pneumoniae
  Organism, effect (morphology, biofilm and growth disruption): S. pneumoniae (M)
bacteria
  Target(s) (microorganism bound by the targeting peptide): Mycobacteria spp

## PF-699 (chain 1 GRAGVKCRRPTGR; chain 2 GRAGVKCRRPTGR; Peptide with targeting and/or antimicrobial activity)
microorganisms; S. pneumoniae
  Organism, effect (morphology, biofilm and growth disruption): S. pneumoniae (A)
bacteria
  Target(s) (microorganism bound by the targeting peptide): Mycobacteria spp

## PF-C136 (LILSYQASVYPLFAYLCQQKDY; Peptide with targeting and/or antimicrobial activity)
microorganisms; F. nucleatum
  Organism, effect (morphology, biofilm and growth disruption): F. nucleatum (C)
microorganisms; P. gingivalis
  Organism, effect (morphology, biofilm and growth disruption): P. gingivalis (R)
bacteria
  Target(s) (microorganism bound by the targeting peptide): A. naeslundii; also recorded: F. nucleatum; also recorded: P. gingivalis; also recorded: S. mutans; also recorded: T. denticola

## PF-692 (chain 1 GVAREDPLEPDPLAPIIDDSR; chain 2 GVAREDPLEPDPLAPIIDDSR; Peptide with targeting and/or antimicrobial activity)
microorganisms; MRSA
  Organism, effect (morphology, biofilm and growth disruption): MRSA (R)
bacteria
  Target(s) (microorganism bound by the targeting peptide): Mycobacteria spp

## PF-294 (DFLVNFLWFKGELNWGKKRYK; Peptide with targeting and/or antimicrobial activity)
microorganisms; S. epidermidis
  Organism, effect: S. epidermidis (C)
bacteria; [1]
  Target(s): S. epidermidis; also recorded: C. difficile
